Columns and labels:
Test in all cases: relative viability (nuclei count vs DMSO), 5 days (fraction); higher = more cells survive
[1] = compound: CCn1c(-c2nonc2N)nc2cnc(Oc3cccc(NC(=O)c4ccc(OCCN5CCOCC5)cc4)c3)cc21 + Cc1nc(Nc2ncc(C(=O)Nc3c(C)cccc3Cl)s2)cc(N2CCN(CCO)CC2)n1 [Dasatinib] (partner 0.075 µM)
In short: (§1)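 Five library-drug doses in √10 steps were combined with a fixed anchor-drug dose, or a single drug was given alone, by pin tool to lung cancer cell lines in 1536-well plates the day after seeding. Nuclei were stained and counted after 5 days. Relative viability is the nuclei count in treated wells over that in vehicle wells, taken as the median of duplicate plates.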

Mirin + Bortezomib = compound: N=C1NC(=O)/C(=C/c2ccc(O)cc2)S1 [Mirin] + CC(C)C[C@H](NC(=O)[C@H](Cc1ccccc1)NC(=O)c1cnccn1)B(O)O [Bortezomib] (partner 0.002 µM)
In short: as §1

[2] = compound: CCC1=CN=CN=C1N2CCN(CC2)CC3=NC4=C(N3)C=C(C=C4)C(F)(F)F + N=C(N)NC(=N)NCCc1ccccc1 [Phenformin] (partner 250 µM)
In short: as §1

[3] = compound: CCC1=CN=CN=C1N2CCN(CC2)CC3=NC4=C(N3)C=C(C=C4)C(F)(F)F + C[C@@H](Oc1cc(-c2cnn(C3CCNCC3)c2)cnc1N)c1c(Cl)ccc(F)c1Cl [Crizotinib] (partner 1 µM)
In short: as §1

Cell Line	relative viability ([1]; first compound 0.04 µM)	relative viability ([1]; first compound 0.1265 µM)	relative viability ([1]; first compound 0.4 µM)	relative viability ([1]; first compound 1.265 µM)	relative viability ([1]; first compound 4 µM)	relative viability (Mirin + Bortezomib; first compound 0.25 µM)	relative viability (Mirin + Bortezomib; first compound 0.7906 µM)	relative viability (Mirin + Bortezomib; first compound 2.5 µM)	relative viability (Mirin + Bortezomib; first compound 7.906 µM)	relative viability (Mirin + Bortezomib; first compound 25 µM)	relative viability ([2]; first compound 0.04 µM)	relative viability ([2]; first compound 0.1265 µM)	relative viability ([2]; first compound 0.4 µM)	relative viability ([2]; first compound 1.265 µM)	relative viability ([2]; first compound 4 µM)	relative viability ([3]; first compound 0.04 µM)	relative viability ([3]; first compound 0.1265 µM)	relative viability ([3]; first compound 0.4 µM)	relative viability ([3]; first compound 1.265 µM)	relative viability ([3]; first compound 4 µM)
NCI-H1651	0.499	0.369	0.229	0.247	0.267	0.912	0.959	0.931	0.854	0.916	0.369	0.321	0.308	0.332	0.375	0.889	0.839	0.845	0.837	0.913
NCI-H1666	0.788	0.617	0.442	0.28	0.278	0.883	0.873	0.976	0.513	0.479	0.569	0.551	0.52	0.555	0.594	0.974	0.916	1.1	0.849	1.03
NCI-H1734	0.416	0.39	0.232	0.229	0.198	0.952	0.778	0.987	0.831	0.793	0.377	0.379	0.427	0.381	0.445	0.655	0.679	0.751		1.12
NCI-H1755	0.373	0.257	0.15	0.206	0.186	0.951	1.03	0.979	0.873	1.11	0.632	0.583	0.597	0.484	0.634	0.963	0.809	0.948	0.89	1.06
NCI-H1792	0.954	0.514		0.405	0.488	0.982	0.997	0.902	0.883	0.984	0.382	0.259	0.162		0.222	0.881	0.875	0.94	0.958	1.01
NCI-H1915	0.33	0.3	0.236	0.186	0.188	1.03		1.01	0.931	0.945	0.361	0.362	0.376	0.344	0.358	0.916	0.878	0.85	0.934	1.03
NCI-H1975	0.309	0.268	0.186	0.18	0.142	0.375	0.366	0.468	0.498	0.321	0.434	0.392	0.374	0.382	0.436	1.08	0.983	0.968	1.11	1.04
NCI-H1993	0.596	0.572	0.5	0.552	0.569	1.04	1.12	1.06	1.02	0.972	0.551	0.461	0.496	0.537	0.579	0.835	0.813	0.883	0.873	0.856
NCI-H2009	0.266	0.144	0.136	0.148	0.152	1	0.831	1.12	0.869	1.14	0.483	0.498	0.45	0.419	0.374	1.06	1.05	1.07	1.05	1.03
NCI-H2023	0.519	0.424	0.257	0.294	0.232	1.13	0.807	1	1.05	0.926	0.449	0.433	0.442	0.378	0.393	0.712	0.655	0.713	0.713	1.07
NCI-H2085	0.307	0.308	0.396	0.251	0.223	1.13	0.972	1.18	0.975	1.02	0.724	0.78	0.663	0.522	0.735	0.86	0.909	0.93	0.892	0.948
NCI-H2087	0.866	0.673	0.544	0.558	0.63	0.885	0.826	0.87	0.924	1.16	0.499	0.465	0.448	0.467	0.496	0.897	0.898	0.921	0.809	0.846
NCI-H2126	0.628	0.522	0.284		0.336	1.12	1.11	1.12	1.07	1.2	0.524	0.533	0.521	0.515	0.581	1.01	1	0.959	1.01	1.1
NCI-H2228	0.592	0.519	0.431	0.407	0.421	0.983	1.04	1	0.919	1.2	0.313	0.341	0.286	0.312	0.399	0.474	0.586	0.417	0.428	0.524
NCI-H2347	0.402	0.436	0.286	0.374	0.349	0.824	1.02	1.32	0.639	1.01	0.314	0.397	0.498	0.243	0.304	0.776	0.684	0.759	0.601	0.749
NCI-H2405	0.239	0.166	0.158	0.135	0.139	1.02	0.765	0.967	0.972	1.01	0.418	0.401	0.419		0.492	0.847	0.867	0.855		1.02

— the supplement of paper PMC10307832
